The record followed here is patent publication US20220031680A1, “Donecopride As Neuroprotective Agent In the Treatment of Neurodegenerative Diseases” (priority 2018, published 2022).

For this experiment, the system named is C57Bl6/J mice challenged with an intracerebroventricular injection of Aβ1-42 oligomers (AβO). The experiment can be described thus: Novel Object Recognition assay in mice icv injected with AβO. The format is in vivo, mouse. Conditions: for mean discrimination index (NOR): day +16; for AβO-induced impairment of recognition memory (NOR): at all doses (1, 3, 9 mg/kg/day po). On the procedure:
Briefly, 144 C57Bl6/J male mice (3 months of age) were received and housed (4 to 5 per cage) in quarantine during 7 days, or longer. Test items were dosed per os (through oral gavage) once daily at different concentrations from day −1 to day +17.
At days +15/+16, recognition memory was investigated using the Novel Object recognition test (NOR).
The different experimental groups are defined as follow: • GROUP A (vehicle CTRL): po vehicle AND icv injection of vehicle (n=12) • GROUP B (APO CTRL): po vehicle AND icv injection of AβO (n=12) • GROUP C (positive CTRL): po Donepezil subchronic AND icv injection of AβO (n=12) • GROUP D (Donecopride CTRL): po Donecopride (9 mg/kg) AND icv injection of vehicle (n=12) • GROUP E (Flucopride CTRL): po Flucopride (9 mg/kg) AND icv injection of vehicle (n=12) • GROUP F (Donecopride Treated): po Donecopride (1 mg/kg) AND icv injection of AβO (n=12) • GROUP G (Donecopride Treated): po Donecopride (3 mg/kg) AND icv injection of AβO (n=12) • GROUP H (Donecopride Treated): po Donecopride (9 mg/kg) AND icv injection of AβO (n=12) • GROUP I (Fluocopride Treated): po Flucopride (1 mg/kg) AND icv injection of AβO (n=12) • GROUP J (Flucopride Treated): po Flucopride (3 mg/kg) AND icv injection of AβO (n=12) • GROUP K (Flucopride Treated): po Flucopride (9 mg/kg) AND icv injection of AβO (n=12) • GROUP L (positive CTRL): ip Donepezil acute on test days AND icv injection of AβO (n=12)
For per os dosing, Donecopride and Flucopride were formulated by solubilization in 0.9% NaCl. Compound dosing (total volume of 200 μL) started one day before induction of the disease (through icv injection of AβO) and was done for 19 consecutive days.
Single intra-cerebroventricular injection of 144 mice with vehicle or APO (max. 24 mice per day, all mice randomized): under anesthesia (ip injection of a mixture of ketamine/xylasine at a dose of 110 and 15 mg/kg, respectively) AβO (1 μL), or vehicle (1 μL) were injected into the right lateral ventricle. Injections were made using 10 μL Hamilton micro syringes fitted with a 26-gauge needle. The procedure was terminated by a subcutaneous injection of metacam (analgesia) at a dose of 5 mg/kg. Animals were then placed individually in their home-cage and the cage was placed in a heated cabinet until the animal has fully recovered. Animals were carefully monitored to control recovery after anesthesia.
Preparation of APO: Aβ1-42 was obtained from Bachem (ref H1368) (batch number: 1052301). The preparation of stable Aβ1-42 oligomers was performed as described in Garcia et al. (2010) J. Neurosci. 30:7516-7527. The oligomeric preparation (identified as Batch #2016-14) contained a mixture of stable trimers and tetramers of Aβ1-42, as well as monomeric forms of the peptide. All oligomer preparations used were previously characterized in terms of oligomer composition and in vitro neurotoxicity.
6 independent trials involving each 24 mice (i.e. 2 mice from each experimental group) for a total of 144 mice at day +4—Behavioral tests were performed 1 h after dosing.
Detailed protocol: One day before the cognitive test (i.e. at day +15), mice are habituated during a 10 minutes' trial during which they are placed in an empty open field. The day of the cognitive test (i.e. day +16), animals are placed in the same open field and are allowed to explore freely two identical objects for a trial of five minutes (acquisition trial). Then the animals are returned in their home-cage for an inter-trial time of five minutes. During the retention trial, animals are allowed to explore two different objects: one familiar and one novel object. During this time, the experimenter, blind to the treatment, record the time the mouse is actively exploring each object. All trials are video recorded (Smart v3.0 software, Bioseb). A discrimination index is then generated: Discrimination index=(time exploring novel object−time exploring familiar object)/total exploration time. […]

For the molecule `COc1cc2c(cc1OC)C(=O)C(CC1CCN(Cc3ccccc3)CC1)C2` (centres unmarked) [Donepezil, reference compound], the “mean discrimination index (NOR)” value reads like this: (ip acute on test day, icv AβO (Group L)) 0.30±0.07; (po sub-chronic, icv AβO (Group C)) 0.29±0.09.

Take `COc1cc(N)c(F)cc1C(=O)CCC1CCN(CC2CCCCC2)CC1` [Flucopride]: the “mean discrimination index (NOR)” value is 0.46±0.05 (3 mg/kg/day po, icv AβO) and 0.36±0.06 (9 mg/kg/day po, icv vehicle). The “AβO-induced impairment of recognition memory (NOR)” value (icv AβO) was “dose-dependent inhibition (bell-shaped curve)”.

Regarding `COc1cc(N)c(Cl)cc1C(=O)CCC1CCN(CC2CCCCC2)CC1` [Donecopride], the “mean discrimination index (NOR)” value is on record as 0.43±0.06 (9 mg/kg/day po, icv AβO) and 0.29±0.04 (9 mg/kg/day po, icv vehicle). The “AβO-induced impairment of recognition memory (NOR)” value (icv AβO) is given as “dose-dependent inhibition”.
